# Values quoted from earlier work in US20030158162A1, “Methods of treating ophthalmic disorders with epoxy-steroidal aldosterone receptor antagonists” (priority 2001, published 2003).
# Conditions: Klin Monatsbl Augenheilkd 176(3):445-6 (1980)
smiles,measurement,value
CC(=O)S[C@@H]1CC2=CC(=O)CC[C@]2(C)[C@H]2CC[C@@]3(C)[C@@H](CC[C@@]34CCC(=O)O4)[C@H]12 [Spironolactone],effect on IOP in glaucoma patients,lower IOP
